pIC50: −log10 of the molar value.

The target of the experiment is T1, PI3Kδ (PI3 Kd) (Homo sapiens, UniProt O00329).
T1 construct: purchased Millipore
T1 sequence (O00329 whole entry): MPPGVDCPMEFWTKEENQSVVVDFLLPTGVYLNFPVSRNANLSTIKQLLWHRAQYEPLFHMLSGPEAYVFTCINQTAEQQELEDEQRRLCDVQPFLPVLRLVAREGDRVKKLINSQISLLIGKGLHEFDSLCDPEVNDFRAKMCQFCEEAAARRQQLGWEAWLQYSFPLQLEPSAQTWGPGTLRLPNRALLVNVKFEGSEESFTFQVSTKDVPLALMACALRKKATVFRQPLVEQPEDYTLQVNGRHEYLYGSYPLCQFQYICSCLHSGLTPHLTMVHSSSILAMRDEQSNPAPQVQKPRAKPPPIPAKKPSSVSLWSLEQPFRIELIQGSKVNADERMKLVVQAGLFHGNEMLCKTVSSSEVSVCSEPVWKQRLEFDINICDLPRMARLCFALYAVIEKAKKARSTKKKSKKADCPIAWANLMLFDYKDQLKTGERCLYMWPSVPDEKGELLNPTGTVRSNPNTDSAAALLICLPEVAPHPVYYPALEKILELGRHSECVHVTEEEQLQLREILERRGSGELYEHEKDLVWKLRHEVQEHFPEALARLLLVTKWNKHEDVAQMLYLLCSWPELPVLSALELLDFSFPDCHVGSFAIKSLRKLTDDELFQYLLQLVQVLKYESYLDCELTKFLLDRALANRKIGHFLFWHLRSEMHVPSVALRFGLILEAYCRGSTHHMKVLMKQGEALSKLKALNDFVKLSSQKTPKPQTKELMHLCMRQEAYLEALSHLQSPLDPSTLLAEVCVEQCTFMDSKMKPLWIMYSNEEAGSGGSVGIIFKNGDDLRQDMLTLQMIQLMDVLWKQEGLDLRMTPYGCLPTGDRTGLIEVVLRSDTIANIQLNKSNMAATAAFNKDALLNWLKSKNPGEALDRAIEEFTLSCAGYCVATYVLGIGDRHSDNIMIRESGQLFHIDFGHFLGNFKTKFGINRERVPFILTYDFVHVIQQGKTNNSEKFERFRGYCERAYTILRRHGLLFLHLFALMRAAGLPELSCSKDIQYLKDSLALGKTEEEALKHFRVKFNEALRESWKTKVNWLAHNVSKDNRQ
T1 sequence (P27986 whole entry partner): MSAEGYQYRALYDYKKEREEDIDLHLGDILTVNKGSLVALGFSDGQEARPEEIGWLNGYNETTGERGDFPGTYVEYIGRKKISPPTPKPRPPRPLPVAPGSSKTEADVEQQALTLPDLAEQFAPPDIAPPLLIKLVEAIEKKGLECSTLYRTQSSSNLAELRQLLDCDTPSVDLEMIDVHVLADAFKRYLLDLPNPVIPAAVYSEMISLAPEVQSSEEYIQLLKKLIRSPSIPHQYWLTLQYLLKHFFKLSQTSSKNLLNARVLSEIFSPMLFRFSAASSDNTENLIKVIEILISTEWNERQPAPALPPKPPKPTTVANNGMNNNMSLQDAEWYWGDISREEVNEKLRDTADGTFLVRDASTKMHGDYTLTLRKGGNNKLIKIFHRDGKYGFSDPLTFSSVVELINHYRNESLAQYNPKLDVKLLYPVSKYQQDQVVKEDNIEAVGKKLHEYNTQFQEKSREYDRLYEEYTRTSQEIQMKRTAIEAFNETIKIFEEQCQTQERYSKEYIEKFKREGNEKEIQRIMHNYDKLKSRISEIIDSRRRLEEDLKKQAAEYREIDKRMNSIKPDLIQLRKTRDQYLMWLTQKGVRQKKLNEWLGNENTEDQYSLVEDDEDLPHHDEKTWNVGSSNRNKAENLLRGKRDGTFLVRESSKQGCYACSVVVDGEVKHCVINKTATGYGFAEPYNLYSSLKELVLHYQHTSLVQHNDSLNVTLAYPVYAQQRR
Put plainly: PI3K HTRF enzymatic inhibition assay (cell-free), PI3Kd. The class given is biochemical. How it is done: PI3K α, β, δ and γ Enzymatic Inhibition Assays
Compounds were screened for their ability to inhibit PI3Kα (PI3Kα), PI3Kβ (PI3 Kb), PI3Kδ (PI3 Kd) and PI3Kγ (PI3 Kg) using a cell-free based PI3K HTRF™ assay (Millipore, ref. #33-017) All reagents to perform the reactions were prepared according to the manufacturer protocol. All PI3K enzymes were recombinant and were purchased at Millipore.
These concentrations were final in the assay. • 3) A reservoir plate containing Adenosine TriPhosphate (ATP) diluted in the Millipore kit buffer was prepared for each isoform. […] Incubation was done for 8 minutes (for all four isoforms) then the reaction was stopped by addition of the Stop solution. The Detection solution was added. These solutions were prepared previously according to the kit specifications.
Background: Time-resolved FRET reads energy transfer from a long-lived donor to a nearby acceptor.
For the molecule `C[C@H](Nc1ncnc2[nH]cnc12)c1nn2ccc(C(F)(F)F)c2c(=O)n1-c1cc(F)cc(F)c1` [Example 90, (S)-2-(1-(9H-Purin-6-ylamino)ethyl)-3-(3,5-difluorophenyl)-5-(trifluoromethyl)pyrrolo[1,2-f][1,2,4]triazin-4(3H)-one], the pIC50 – broadly, −log10 of the IC50, conventionally taken in molar units – is 8.15. The figure for `C[C@H](Nc1ncnc(N)c1F)c1nn2ccc(C(F)F)c2c(=O)n1-c1cc(F)cc(F)c1` [Example 102, (S)-2-(1-(6-Amino-5-fluoropyrimidin-4-ylamino)ethyl)-5-(difluoromethyl)-3-(3,5-difluorophenyl)pyrrolo[1,2-f][1,2,4]triazin-4(3H)-one] is 7.38; for `C[C@H](Nc1ncnc(N)c1C#N)c1nn2ccc(C#N)c2c(=O)n1-c1cc(Cl)cc(Cl)c1` [Example 104, (S)-2-(1-(6-Amino-5-cyanopyrimidin-4-ylamino)ethyl)-3-(3,5-dichlorophenyl)-4-oxo-3,4-dihydropyrrolo[1,2-f][1,2,4]triazine-5-carbonitrile] it is 7.44; for `C[C@H](Nc1ncnc(N)c1C#N)c1nn2ccc(CN3CCOCC3)c2c(=O)n1-c1ccccc1` [Example 122, (S)-4-Amino-6-(1-(5-(morpholinomethyl)-4-oxo-3-phenyl-3,4-dihydropyrrolo[1,2-f][1,2,4]triazin-2-yl)ethylamino)pyrimidine-5-carbonitrile] it is 5.53.

In the case of `C[C@H](Nc1ncnc(N)c1C#N)c1nn2cccc2c(=O)n1-c1cn[nH]c1` [Example 124, (S)-4-Amino-6-(1-(4-oxo-3-(1H-pyrazol-4-yl)-3,4-dihydropyrrolo[1,2-f][1,2,4]triazin-2-yl)ethylamino)pyrimidine-5-carbonitrile], the pIC50 is 7.96. As for `Cc1nc(-c2ccn3nc([C@H](C)Nc4ncnc5[nH]cnc45)n(-c4cc(F)cc(F)c4)c(=O)c23)no1` [Example 125, (S)-2-(1-(9H-Purin-6-ylamino)ethyl)-3-(3,5-difluorophenyl)-5-(5-methyl-1,2,4-oxadiazol-3-yl)pyrrolo[1,2-f][1,2,4]triazin-4(3H)-one], the figure is 7.05. The figure for `Cc1cc(-n2c([C@H](C)Nc3ncnc(N)c3C#N)nn3cccc3c2=O)n[nH]1` [Example 127, (S)-4-Amino-6-(1-(3-(5-methyl-1H-pyrazol-3-yl)-4-oxo-3,4-dihydropyrrolo[1,2-f][1,2,4]triazin-2-yl)ethylamino)pyrimidine-5-carbonitrile] is 7.05; for `C[C@H](Nc1ncnc(N)c1C#N)c1nn2cccc2c(=O)n1C1CCOCC1` [Example 136, (S)-4-Amino-6-(1-(4-oxo-3-(tetrahydro-2H-pyran-4-yl)-3,4-dihydropyrrolo[1,2-f][1,2,4]triazin-2-yl)ethylamino)pyrimidine-5-carbonitrile] it is 7.62; for `C[C@H](Nc1ncnc(N)c1C#N)c1nn2cccc2c(=O)n1C1CCC1` [Example 138, (S)-4-Amino-6-(1-(3-cyclobutyl-4-oxo-3,4-dihydropyrrolo[1,2-f][1,2,4]triazin-2-yl)ethylamino)pyrimidine-5-carbonitrile] it is 8.10. As for `C[C@H](Nc1ncnc(N)c1C#N)c1nn2ccc(Br)c2c(=O)[nH]1` [Example 142, (S)-4-Amino-6-(1-(5-bromo-4-oxo-3,4-dihydropyrrolo[1,2-f][1,2,4]triazin-2-yl)ethylamino)pyrimidine-5-carbonitrile], the figure is 8.30. Turning to `C[C@H](Nc1ncnc(N)c1C#N)c1nn2ccc(Br)c2c(=O)n1-c1ccccc1` [Example 144, (S)-4-Amino-6-(1-(5-bromo-4-oxo-3-phenyl-3,4-dihydropyrrolo[1,2-f][1,2,4]triazin-2-yl)ethylamino)pyrimidine-5-carbonitrile], the pIC50 was 9.00. Take `CCCNC(=O)c1ccn2nc([C@H](C)Nc3ncnc(N)c3C#N)n(-c3ccccc3)c(=O)c12` [Example 152, (S)-2-(1-(6-Amino-5-cyanopyrimidin-4-ylamino)ethyl)-4-oxo-3-phenyl-N-propyl-3,4-dihydropyrrolo[1,2-f][1,2,4]triazine-5-carboxamide]: the pIC50 is 6.13. The figure for `N#Cc1c(N)ncnc1N[C@@H](CO)c1nn2cccc2c(=O)n1-c1cc(F)cc(F)c1` [Example 157, (R)-4-Amino-6-(1-(3-(3,5-difluorophenyl)-4-oxo-3,4-dihydropyrrolo[1,2-f][1,2,4]triazin-2-yl)-2-hydroxyethylamino)pyrimidine-5-carbonitrile] is 7.18; for `Cc1ccccc1-n1c(CNc2ncnc(N)c2C#N)nn2cccc2c1=O` [Example 158, 4-Amino-6-((4-oxo-3-o-tolyl-3,4-dihydropyrrolo[1,2-f][1,2,4]triazin-2-yl)methylamino)pyrimidine-5-carbonitrile] it is 7.37; for `C[C@H](Nc1ncnc(N)c1C#N)c1nn2ccc(CCO)c2c(=O)n1-c1ccccc1` [Example 159, (S)-4-Amino-6-(1-(5-(2-hydroxyethyl)-4-oxo-3-phenyl-3,4-dihydropyrrolo[1,2-f][1,2,4]triazin-2-yl)ethylamino)pyrimidine-5-carbonitrile] it is 7.46. Molecule `CCCOC(=O)c1ccn2nc(C(C)Nc3ncnc(N)c3C#N)n(-c3ccccc3)c(=O)c12` [Example 164, (S)-Propyl 2-(1-(6-amino-5-cyanopyrimidin-4-ylamino)ethyl)-4-oxo-3-phenyl-3,4-dihydropyrrolo[1,2-f][1,2,4]triazine-5-carboxylate] showed a pIC50 of 7.17. As to `N#Cc1c(N)ncnc1N[C@@H](CCO)c1nn2cccc2c(=O)[nH]1` [Example 165, (S)-4-Amino-6-(3-hydroxy-1-(4-oxo-3,4-dihydropyrrolo[1,2-f][1,2,4]triazin-2-yl)propylamino)pyrimidine-5-carbonitrile], the pIC50 was 6.17. Take `C[C@H](Nc1ncnc(N)c1C#N)c1nn2ccc(Br)c2c(=O)n1-c1cccc(C(F)(F)F)c1` [Example 169, (S)-4-Amino-6-(1-(5-bromo-4-oxo-3-(3-(trifluoromethyl)phenyl)-3,4-dihydropyrrolo[1,2-f][1,2,4]triazin-2-yl)ethylamino)pyrimidine-5-carbonitrile]: the pIC50 is 8.22. The figure for `C[C@H](Nc1ncnc(N)c1C#N)c1nn2ccc(C#N)c2c(=O)n1-c1cccc(C(F)(F)F)c1` [Example 176, (S)-2-(1-(6-Amino-5-cyanopyrimidin-4-ylamino)ethyl)-4-oxo-3-(3-(trifluoromethyl)phenyl)-3,4-dihydropyrrolo[1,2-f][1,2,4]triazine-5-carbonitrile] is 7.49; for `C[C@H](Nc1ncnc(N)c1C#N)c1nn2cccc2c(=O)n1-c1cccc(O)c1` [Example 179] it is 8.15.

The values are drawn from patent US9340547B2, “Pyrrolotriazinone derivatives as inhibitors P13K” (Almirall, S.A., priority 2011, dated 2016).
